The test system of the experiment is STAT6. The experiment can be described thus: Western blotting of phospho-STAT6 in IL-4 stimulated CD-19 B cells. The experiment is classed as cell-based, human. Conditions: B cells pretreated 30 minutes, then 100 ng/ml IL-4 for 30 minutes (FIG. 11D). Here is the method: CD-19 B cells (2×10^6/ml) were pretreated with 1,3-dioxo-(2,6-dioxopiperidin-3-yl)-4-aminoisoindoline at 10 μM and 1 μM for 30 minutes. IL-4 (100 ng/ml) was added to cell suspension for 30 minutes, and the cell pellet was washed once by PBS and lysed with 50 μl of the sample buffer. Cell lysates were heated at 100° C. for 5 minutes, and 20 μl of cell lysates were loaded to 4-20% Tris-glycine SDS-PAGE (Invitrogen). The transferred membrane was blotted with 1: 1000 anti-phopho STAT6 antibody (Cell signaling) for overnight at 4° C. prior to secondary HRP conjugated anti rabbit antibody. The signal of the membrane was developed by ECL kit, following the manufacturer's instructions.
Because activation of STAT6 is important in IL-4 induced IgE and IgG1 class switching, whether immunomodulatory compounds could inhibit phosphorylation of STAT6 was investigated. B cells were pretreated with 1,3-dioxo-(2,6-dioxopiperidin-3-yl)-4-aminoisoindoline for 30 minutes, then stimulated with 100 ng/ml of IL-4 for 30 minutes. The activation of STAT6 was assessed by anti-phospho-STAT6 (Tyr 641).
In general terms: Immunoblotting shows a protein as a band on a membrane.

From patent US8394832B2, “Methods and compositions using immunomodulatory compounds for the treatment of immunodeficiency disorders” (Celgene Corporation, priority 2004, dated 2013) come the findings set out here.

As to `Nc1cccc2c1C(=O)N(C1CCC(=O)NC1=O)C2=O` (stereo not shown) [1,3-dioxo-(2,6-dioxopiperidin-3-yl)-4-aminoisoindoline], the “phosphorylation of STAT6 (Tyr 641)” value is reported as “block phosphorylation of STAT6”.
